Measurements: patent US10167262B2, “Herbicidal substituted 3-arylpyrazoles” (FMC CORPORATION, priority 2014, dated 2019)

Legend:
Format in all cases: in vivo
[1] = test system: woolly cupgrass (Eriochloa villosa); assay: Test C postemergence greenhouse test, plant response rating 0-100; conditions: for Plant response rating, Cupgrass, Woolly: 250 g ai/ha, scale 0 to 100
How it was run: (§1)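 Postemergence spray onto 1–4-leaf potted seedlings, greenhouse incubation 13–15 days. Visual percent-control rating (0–100) against untreated plants.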

[2] = test system: cocklebur (common cocklebur, Xanthium strumarium); assay: as above; conditions: for Plant response rating, Cocklebur: 250 g ai/ha, scale 0 to 100
How it was run: as §1

[3] = test system: deadnettle (henbit deadnettle, Lamium amplexicaule); assay: as above; conditions: for Plant response rating, Deadnettle: 250 g ai/ha, scale 0 to 100
How it was run: as §1

[4] = test system: canarygrass (Phalaris minor); assay: as above; conditions: for Plant response rating, Canarygrass: 250 g ai/ha, scale 0 to 100
How it was run: as §1

[5] = test system: winter barley (Hordeum vulgare); assay: as above; conditions: for Plant response rating, Barley: 250 g ai/ha, scale 0 to 100
How it was run: as §1

[6] = test system: downy bromegrass (Bromus tectorum); assay: as above; conditions: for Plant response rating, Bromegrass, Downy: 250 g ai/ha, scale 0 to 100
How it was run: as §1

[7] = test system: surinam grass (Brachiaria decumbens); assay: as above; conditions: for Plant response rating, Surinam Grass: 250 g ai/ha, scale 0 to 100
How it was run: as §1

[8] = test system: windgrass (Apera spica-venti); assay: as above; conditions: for Plant response rating, Windgrass: 250 g ai/ha, scale 0 to 100
How it was run: as §1

[9] = test system: green foxtail (Setaria viridis); assay: as above; conditions: for Plant response rating, Foxtail, Green: 250 g ai/ha, scale 0 to 100
How it was run: as §1

[10] = test system: waterhemp_RES2, (ALS & HPPD resistant common waterhemp, Amaranthus rudis); assay: Test E postemergence greenhouse test, plant response rating 0-100; conditions: scale 0 to 100
Procedure: At the same time, plants from these crop and weed species and also waterhemp_RES1, (ALS & Triazine resistant common waterhemp, Amaranthus rudis), and waterhemp_RES2, (ALS & HPPD resistant common waterhemp, Amaranthus rudis) were planted in pots containing Redi-Earth® planting medium (Scotts Company, 14111 Scottslawn Road, Marysville, Ohio 43041) comprising spaghnum peat moss, vermiculite, wetting agent and starter nutrients were treated with postemergence applications of test chemicals formulated in the same manner. Plants ranged in height from 2 to 18 cm for postemergence treatments (1- to 4-leaf stage).
Treated plants and controls were maintained in a greenhouse for 14 to 21 days, after which time all species were compared to controls and visually evaluated. Plant response ratings, summarized in Table E, are based on a scale of 0 to 100 where 0 is no effect and 100 is complete control. A dash (-) response means no test result.

SMILES | Plant response rating (0 to 100), Cupgrass, Woolly ([1]; 31 g ai/ha) | Plant response rating (0 to 100), Cupgrass, Woolly ([1]; 62 g ai/ha) | Plant response rating (0 to 100), Cupgrass, Woolly ([1]; 125 g ai/ha) | Plant response rating, Cupgrass, Woolly [1] | Plant response rating (0 to 100), Cocklebur ([2]; 31 g ai/ha) | Plant response rating (0 to 100), Cocklebur ([2]; 62 g ai/ha) | Plant response rating (0 to 100), Cocklebur ([2]; 125 g ai/ha) | Plant response rating, Cocklebur [2] | Plant response rating (0 to 100), Deadnettle ([3]; 31 g ai/ha) | Plant response rating (0 to 100), Deadnettle ([3]; 62 g ai/ha) | Plant response rating (0 to 100), Deadnettle ([3]; 125 g ai/ha) | Plant response rating, Deadnettle [3] | Plant response rating (0 to 100), Canarygrass ([4]; 31 g ai/ha) | Plant response rating (0 to 100), Canarygrass ([4]; 62 g ai/ha) | Plant response rating (0 to 100), Canarygrass ([4]; 125 g ai/ha) | Plant response rating, Canarygrass [4] | Plant response rating (0 to 100), Barley ([5]; 31 g ai/ha) | Plant response rating (0 to 100), Barley ([5]; 62 g ai/ha) | Plant response rating (0 to 100), Barley ([5]; 125 g ai/ha) | Plant response rating, Barley [5] | further results
CCn1cc(C(=NN2CCCC2)c2ccccc2)c(-c2cc(Cl)cc(Cl)c2)n1 [Compound 37] | 5 | 5 | 5 | 5 | 5 | 10 | 15 | 20 | 0 | 0 | 0 | 0 | 0 | 0 | 0 | 0 | 0 | 0 | 0 | 0 | Plant response rating (0 to 100), Bromegrass, Downy ([6]; 31 g ai/ha): 0; Plant response rating (0 to 100), Bromegrass, Downy ([6]; 62 g ai/ha): 0; Plant response rating (0 to 100), Bromegrass, Downy ([6]; 125 g ai/ha): 0; Plant response rating, Bromegrass, Downy [6]: 0; Plant response rating (0 to 100), Surinam Grass ([7]; 62 g ai/ha): 0; Plant response rating (0 to 100), Surinam Grass ([7]; 125 g ai/ha): 0; Plant response rating, Surinam Grass [7]: 0; Plant response rating (0 to 100), Windgrass ([8]; 62 g ai/ha): 0; Plant response rating (0 to 100), Windgrass ([8]; 125 g ai/ha): 0; Plant response rating, Windgrass [8]: 0; Plant response rating (0 to 100), Foxtail, Green ([9]; 31 g ai/ha): 0; Plant response rating (0 to 100), Foxtail, Green ([9]; 62 g ai/ha): 0; Plant response rating (0 to 100), Foxtail, Green ([9]; 125 g ai/ha): 0; Plant response rating, Foxtail, Green [9]: 0
C=CCn1cc(C(=O)c2ccccc2)c(-c2cc(Cl)cc(Cl)c2)n1 [Compound 60] | 0 | 0 | 5 | 5 | 10 | 15 | 20 | 50 | 0 | 0 | 0 | 0 | 0 | 0 | 0 | 0 | 0 | 0 | 0 | 0 | Plant response rating (0 to 100), Bromegrass, Downy ([6]; 31 g ai/ha): 0; Plant response rating (0 to 100), Bromegrass, Downy ([6]; 62 g ai/ha): 0; Plant response rating (0 to 100), Bromegrass, Downy ([6]; 125 g ai/ha): 0; Plant response rating, Bromegrass, Downy [6]: 0; Plant response rating (0 to 100), Surinam Grass ([7]; 62 g ai/ha): 0; Plant response rating (0 to 100), Surinam Grass ([7]; 125 g ai/ha): 0; Plant response rating, Surinam Grass [7]: 5; Plant response rating (0 to 100), Windgrass ([8]; 62 g ai/ha): 0; Plant response rating (0 to 100), Windgrass ([8]; 125 g ai/ha): 0; Plant response rating, Windgrass [8]: 0; Plant response rating (0 to 100), Foxtail, Green ([9]; 31 g ai/ha): 0; Plant response rating (0 to 100), Foxtail, Green ([9]; 62 g ai/ha): 0; Plant response rating (0 to 100), Foxtail, Green ([9]; 125 g ai/ha): 0; Plant response rating, Foxtail, Green [9]: 0; Plant response rating, Waterhemp_RES2 ([10]; 62 g ai/ha): 20; Plant response rating, Waterhemp_RES2 ([10]; 125 g ai/ha): 20; Plant response rating, Waterhemp_RES2 ([10]; 250 g ai/ha): 25
